The values that follow come from patent publication US9040707B2, “Bicyclic thiazoles as allosteric modulators of mGluR5 receptors” (Janssen Pharmaceutica NV, priority 2009, dated 2015).

pEC50: −log10 of the molar value.

For one data set, the target named is T1, human mGluR5a receptor (Homo sapiens, UniProt P41594).
T1 construct: host or cells: HEK293A (monoclones H10H and H12H)
As to the kind of experiment: Functional Assay 2: Ca2+ mobilization, HEK cells with human mGluR5a receptor (H10H cell line). The data set is classed as cell-based. As to conditions: H10H cell line; for pEC50: glutamate EC20; for Emax: HEK293, maximum average response at a single concentration, relative to glutamate ECMax. The method, then:
Human mGluR5a cDNA in pCMV6-XL6 mammalian expression plasmid was purchased from OriGene Technologies, Inc. (catalogue number SC326357) and subcloned into pcDNA3.1(−). […] Monoclones were named for the species (“H” for human) plus the location on the plate (e.g. “10H”).
The following day, the growth medium was removed and the cells were washed with assay buffer containing 1× Hank's balanced salt solution (Invitrogen, Carlsbad, Calif.), 20 mM HEPES, 2.5 mM probenecid, pH 7.4 and left with 20 μL of this reagent. Following this step, the cells were loaded with calcium indicator dye, fluo-4 AM, to a final concentration of 2 μM and incubated for 40-45 min at 37° C. The dye solution was removed and replaced with assay buffer. Cell plates were held for 10-15 min at room temperature and were then loaded into the Functional Drug Screening System 6000 (FDSS 6000, Hamamatsu, Japan).
After establishment of a fluorescence baseline for about 3 seconds, the compounds of the present invention were added to the cells, and the response in cells was measured. 2.3 minutes later an EC20 concentration of the mGluR5 receptor agonist glutamate was added to the cells, and the response of the cells was measured for about 1.7 minutes. All test compounds were dissolved and diluted to a concentration of 10 mM in 100% DMSO and then serially diluted into assay buffer for a 2× stock solution in 0.6% DMSO; stock compounds were then added to the assay for a final DMSO concentration of 0.3% after the first addition to the assay well. Calcium fluorescence measures were recorded as fold over basal fluorescence; raw data was then normalized to the maximal response to glutamate.
The concentration-response curves of compounds of the present invention, obtained in the presence of EC20 of mGluR5 receptor agonist glutamate to determine positive allosteric modulation, were generated using Microsoft Excel with IDBS XLfit add-ins. The raw data file containing all time points was used as the data source in the analysis template. This was saved by the FDSS as a tab-delimitted text file. Data were normalized using a static ratio function (F/F0) for each measurement of the total 350 values per well divided by each well's initial value. […] This is sufficient time to capture the peak amplitude of the cellular calcium response. […] Each of the three values collected at each concentration of test compound were weighted evenly. […] These two methods are in good agreement for curves with a clear plateau at the high concentration range.
In general terms: Calcium flux is commonly read through the fluorescence of an indicator in the cells.

T1 sequence (P41594 21-1180 isoform P41594-2 limits assumed): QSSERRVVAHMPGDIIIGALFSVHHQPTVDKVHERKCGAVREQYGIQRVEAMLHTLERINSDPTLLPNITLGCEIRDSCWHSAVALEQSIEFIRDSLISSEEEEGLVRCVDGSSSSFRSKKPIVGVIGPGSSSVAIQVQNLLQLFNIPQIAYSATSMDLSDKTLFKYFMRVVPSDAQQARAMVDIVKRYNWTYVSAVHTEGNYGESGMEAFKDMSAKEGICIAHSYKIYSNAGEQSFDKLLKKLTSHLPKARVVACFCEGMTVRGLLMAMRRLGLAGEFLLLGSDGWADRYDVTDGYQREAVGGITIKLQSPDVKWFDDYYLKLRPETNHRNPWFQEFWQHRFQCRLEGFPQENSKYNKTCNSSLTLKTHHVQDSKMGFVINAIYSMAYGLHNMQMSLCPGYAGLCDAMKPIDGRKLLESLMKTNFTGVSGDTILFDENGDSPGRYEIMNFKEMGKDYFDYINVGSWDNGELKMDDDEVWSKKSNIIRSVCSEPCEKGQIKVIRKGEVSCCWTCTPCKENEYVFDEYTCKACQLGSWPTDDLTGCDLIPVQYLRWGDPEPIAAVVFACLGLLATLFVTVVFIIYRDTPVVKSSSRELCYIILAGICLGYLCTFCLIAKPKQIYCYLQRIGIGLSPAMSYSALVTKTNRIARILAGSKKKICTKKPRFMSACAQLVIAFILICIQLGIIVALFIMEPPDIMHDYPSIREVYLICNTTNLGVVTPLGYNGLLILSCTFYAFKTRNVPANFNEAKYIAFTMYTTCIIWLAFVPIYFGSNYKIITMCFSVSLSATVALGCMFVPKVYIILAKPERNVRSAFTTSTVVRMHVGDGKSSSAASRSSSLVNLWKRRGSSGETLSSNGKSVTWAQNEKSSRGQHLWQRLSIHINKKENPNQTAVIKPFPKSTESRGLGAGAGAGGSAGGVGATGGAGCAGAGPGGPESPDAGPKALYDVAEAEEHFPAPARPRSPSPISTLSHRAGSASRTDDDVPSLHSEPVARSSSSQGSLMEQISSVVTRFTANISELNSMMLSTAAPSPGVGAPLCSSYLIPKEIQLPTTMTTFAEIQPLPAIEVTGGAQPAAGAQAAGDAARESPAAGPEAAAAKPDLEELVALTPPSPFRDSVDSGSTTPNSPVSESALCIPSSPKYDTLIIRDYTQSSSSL

`O=C1c2sc(OCc3ccccc3)nc2CCN1Cc1ccc(F)cc1F` [Compound 13, 5-[(2,4-difluorophenyl)methyl]-6,7-dihydro-2-(phenylmethoxy)-thiazolo[5,4-c]pyridin-4(5H)-one]: the melting point (as a rule, the temperature, or range, at which the solid turns liquid) lay in the range of 108 to 111.2 °C. Further, at human mGluR5a receptor, the pEC50 (in general, the EC50 on a negative log10 scale, so that one unit is a factor of ten) is 5.73 and the maximal response (Emax) (as a rule, the greatest response seen or fitted, relative to the assay's reference) was 48%.

`O=C1c2sc(OCc3cccc(F)c3)nc2CCN1c1ccc(F)cc1` [Compound 19, 5-(4-fluorophenyl)-2-[(3-fluorophenyl)methoxy]-6,7-dihydro-thiazolo[5,4-c]pyridin-4(5H)-one] came in with a melting point of 127.4 to 128.9 °C. Also, at human mGluR5a receptor, the negative logarithm of the EC50 (pEC50) was 6.67 and the Emax was determined as 38%.

For `N#Cc1cccc(COc2nc3c(s2)C(=O)N(c2ccc(F)cc2F)CC3)c1` [Compound 20, 3-[[[5-(2,4-difluorophenyl)-4,5,6,7-tetrahydro-4-oxothiazolo[5,4-c]pyridin-2-yl]oxy]methyl]-benzonitrile], the melting point is 112.9 °C. At human mGluR5a receptor, this compound gave a pEC50 of 6.80 and a maximum response (Emax) of 25%.

`Cc1cccc(COc2nc3c(s2)C(=O)N(c2ccc(F)cc2F)CC3)c1` [Compound 21, 5-(2,4-difluorophenyl)-6,7-dihydro-2-[(3-methylphenyl)methoxy]-thiazolo[5,4-c]pyridin-4(5H)-one]: the melting point lay within 95.2 to 97.2 °C. At human mGluR5a receptor, this compound showed a pEC50 of 6.48 and an Emax of 54%.

Regarding `O=C1c2sc(OCc3ccccc3F)nc2CCN1c1ccc(F)cc1` [Compound 22, 5-(4-fluorophenyl)-2-[(2-fluorophenyl)methoxy]-6,7-dihydro-thiazolo[5,4-c]pyridin-4(5H)-one], the melting point lay within 91 to 92.5 °C. Further, on human mGluR5a receptor, the pEC50 is 6.43 and the maximal effect (Emax) was 45%.

For the compound `O=C1c2sc(COc3cccc(F)c3)nc2CCN1c1ccc(F)cc1` [Compound 25, 2-[(3-fluorophenoxy)methyl]-5-(4-fluorophenyl)-6,7-dihydro-thiazolo[5,4-c]pyridin-4(5H)-one], the melting point was found to be 152.8 °C. At human mGluR5a receptor, this compound had a pEC50 of 6.76 and an Emax of 63%.

On to `O=C1c2sc(COc3ccccc3)nc2CCN1c1ccc(F)cc1F` [Compound 29, 5-(2,4-difluorophenyl)-6,7-dihydro-2-(phenoxymethyl)-thiazolo[5,4-c]pyridin-4(5H)-one], for which the melting point was 268.9 to 284.1 °C. At human mGluR5a receptor, this compound gave a pEC50 of 7.01 and a maximal response (Emax) of 81%.

In turn, `O=C1c2sc(COc3ccccc3F)nc2CCN1c1ccc(F)cc1` [Compound 31, 2-[(2-fluorophenoxy)methyl]-5-(4-fluorophenyl)-6,7-dihydro-thiazolo[5,4-c]pyridin-4(5H)-one] returned a melting point above 280 °C. On human mGluR5a receptor, the negative logarithm of the EC50 (pEC50) was 6.55 and the Emax worked out at 71%.

Regarding `O=C1c2sc(COc3ccc(F)cc3)nc2CCN1c1ccc(F)cc1F` [Compound 32, 5-(2,4-difluorophenyl)-2-[(4-fluorophenoxy)methyl]-6,7-dihydro-thiazolo[5,4-c]pyridin-4(5H)-one], the melting point was above 280 °C. For the same compound, at human mGluR5a receptor, the pEC50 is 6.65 and the Emax was found to be 81%.

In turn, `C[C@@H](N1CCc2nc(COc3ccccc3F)sc2C1=O)C(C)(C)C` [Compound 33, 2-[(2-fluorophenoxy)methyl]-6,7-dihydro-5-[(1R)-1,2,2-trimethylpropyl]-thiazolo[5,4-c]pyridin-4(5H)-one] returned a melting point of 98.4 to 99.6 °C. For the same compound, at human mGluR5a receptor, the pEC50 was below 4.52 and the Emax was 38%.

`COc1ccccc1N1CCc2nc(COc3cccc(F)c3)sc2C1=O` [Compound 37, 2-[(3-fluorophenoxy)methyl]-6,7-dihydro-5-(2-methoxyphenyl)-thiazolo[5,4-c]pyridin-4(5H)-one] yielded a melting point of 61.2 to 64.2 °C. At human mGluR5a receptor, this compound showed a negative logarithm of the EC50 (pEC50) of 6.06 and an Emax of 83%.

Consider `CN1CCCc2nc(COc3ccccc3)sc2C1=O` [Compound 38, 5,6,7,8-tetrahydro-5-methyl-2-(phenoxymethyl)-4H-thiazolo[5,4-c]azepin-4-one], for which the melting point is 105.9 °C. At human mGluR5a receptor, this compound had a pEC50 of 5.97 and an Emax of 70%.

`O=C1c2sc(COc3ccccc3)nc2CCN1CC1CC1` [Compound 39, 5-(cyclopropylmethyl)-6,7-dihydro-2-(phenoxymethyl)-thiazolo[5,4-c]pyridin-4(5H)-one] came in with a melting point of 292.6 to 302.9 °C. At human mGluR5a receptor, this compound gave a negative logarithm of the EC50 (pEC50) of 6.68.

As for `O=C1c2sc(COc3cccc(F)c3)nc2CCN1C1CC1` [Compound 40, 5-cyclopropyl-2-[(3-fluorophenoxy)methyl]-6,7-dihydro-thiazolo[5,4-c]pyridin-4(5H)-one], the melting point fell in the range of 243.9 to 245.7 °C. At human mGluR5a receptor, this compound gave a pEC50 of 5.81 and an Emax of 39%.

In the case of `O=C1c2sc(COc3cccc(F)c3)nc2CCN1CC1CC1` [Compound 41, 5-(cyclopropylmethyl)-2-[(3-fluorophenoxy)methyl]-6,7-dihydro-thiazolo[5,4-c]pyridin-4(5H)-one], the melting point lay within 275.4 to 277.8 °C. At human mGluR5a receptor, this compound had a pEC50 of 6.65 and an Emax of 66%.

Turning to `O=C1c2sc(COc3ccccc3F)nc2CCN1CC1CC1` [Compound 42, 5-(cyclopropylmethyl)-2-[(2-fluorophenoxy)methyl]-6,7-dihydro-thiazolo[5,4-c]pyridin-4(5H)-one], the melting point is 85.3 to 87.1 °C. Further, on human mGluR5a receptor, the negative-log EC50 (pEC50) is 5.96 and the Emax is 67%.

In turn, `O=C1c2sc(COc3ccc(F)cc3)nc2CCN1CC1CC1` [Compound 43, 5-(cyclopropylmethyl)-2-[(4-fluorophenoxy)methyl]-6,7-dihydro-thiazolo[5,4-c]pyridin-4(5H)-one] displayed a melting point of 254 to 259.1 °C. At human mGluR5a receptor, this compound gave a negative-log EC50 (pEC50) of 6.12 and a maximal response (Emax) of 59%.

Compound `O=C1c2sc(COc3ccccc3)nc2CCN1C1CC1` [Compound 44, 5-cyclopropyl-6,7-dihydro-2-(phenoxymethyl)-thiazolo[5,4-c]pyridin-4(5H)-one] registered a melting point of 252.1 to 255.3 °C. At human mGluR5a receptor, this compound had a pEC50 of 5.36 and a maximal response (Emax) of 36%.

The compound `Cc1cccc(N2CCc3nc(COc4ccccc4)sc3C2=O)n1` [Compound 46, 6,7-dihydro-5-(6-methyl-2-pyridinyl)-2-(phenoxymethyl)-thiazolo[5,4-c]pyridin-4(5H)-one] showed a melting point of 155.5 °C. On human mGluR5a receptor, this compound gave a negative logarithm of the EC50 (pEC50) of 6.26 and an Emax of 84%.

`O=C1c2sc(COc3ccc(F)cc3)nc2CCN1c1ccc(F)cn1` [Compound 53, 2-[(4-fluorophenoxy)methyl]-5-(5-fluoro-2-pyridinyl)-6,7-dihydro-thiazolo[5,4-c]pyridin-4(5H)-one] displayed a melting point of 185.8 to 186.8 °C. On human mGluR5a receptor, this compound showed a pEC50 of 6.53 and an Emax of 56%.

`O=C1c2sc(COc3cccc(F)c3)nc2CCN1c1ccc(F)cn1` [Compound 54, 2-[(3-fluorophenoxy)methyl]-5-(5-fluoro-2-pyridinyl)-6,7-dihydro-thiazolo[5,4-c]pyridin-4(5H)-one] showed a melting point of 125.8 to 126.4 °C. At human mGluR5a receptor, the pEC50 is 6.54 and the maximal effect (Emax) amounted to 79%.

Regarding `O=C1c2sc(COc3ccccc3F)nc2CCN1c1ccc(F)cn1` [Compound 55, 2-[(2-fluorophenoxy)methyl]-5-(5-fluoro-2-pyridinyl)-6,7-dihydro-thiazolo[5,4-c]pyridin-4(5H)-one], the melting point lay in the range of 151.8 to 153 °C. On human mGluR5a receptor, this compound gave a negative-log EC50 (pEC50) of 6.26 and an Emax of 63%.

`O=C1c2sc(COc3ccccc3)nc2CCN1c1cncc(F)c1` [Compound 57, 5-(5-fluoro-3-pyridinyl)-6,7-dihydro-2-(phenoxymethyl)-thiazolo[5,4-c]pyridin-4(5H)-one] registered a melting point of 167.6 °C. On human mGluR5a receptor, this compound showed a pEC50 of 5.77 and an Emax of 62%.

`O=C1c2sc(COc3ccccc3F)nc2CCN1c1ccc(F)cc1F` [Compound 59, 5-(2,4-difluorophenyl)-2-[(2-fluorophenoxy)methyl]-6,7-dihydro-thiazolo[5,4-c]pyridin-4(5H)-one] yielded a melting point of 100.1 to 105.2 °C. Further, on human mGluR5a receptor, the negative-log EC50 (pEC50) was 6.71 and the Emax is 76%.
